Counter-ions that a name gives are not always drawn. Like-named read-outs stand apart in the source and are kept apart here.

Series [1] deals with T1, human intestinal bile acid transporter (hIBAT) (Homo sapiens, UniProt Q12908).
T1 construct: expressed in transfected cells; host or cells: COS-7 cells, transient transfection with pCMV5-hIBAT (LipofectAMINE 2000)
T1 sequence (Q12908 1-348): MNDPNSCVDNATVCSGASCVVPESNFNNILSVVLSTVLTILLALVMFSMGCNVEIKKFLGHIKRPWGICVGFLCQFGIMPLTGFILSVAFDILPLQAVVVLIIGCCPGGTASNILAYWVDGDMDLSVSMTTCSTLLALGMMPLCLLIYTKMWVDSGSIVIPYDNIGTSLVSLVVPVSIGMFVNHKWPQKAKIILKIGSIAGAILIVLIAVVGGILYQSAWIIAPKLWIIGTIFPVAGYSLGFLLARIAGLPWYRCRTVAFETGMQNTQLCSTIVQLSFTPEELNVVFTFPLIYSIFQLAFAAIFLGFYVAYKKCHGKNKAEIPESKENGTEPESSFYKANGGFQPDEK
In words: Competitive inhibition of 3H-taurocholate uptake in COS-hIBAT cells. It is filed as cell-based. Conditions: for Ki: COS-7 cells transfected with hIBAT, HBSS with sodium, value (±SEM); for inhibition of 3H-taurocholate uptake / interaction with hIBAT (in words): COS-hIBAT cells, 0.25 μM 3H-taurocholate, valacyclovir 10 to 600 μM, atenolol 10 to 200 μM, glycine and taurine 50 to 200 μM, bile acids 1 to 100 μM. The method, then:
Cell dilutions are streaked on nutrient agar plates containing 50 μg/ml ampicillin, and incubated at 37° C. overnight. Isolated colonies are selected aseptically, and are used to inoculate a 200 ml nutrient broth culture containing 50 μg/ml ampicillin. […] After an isopropanol precipitation and ethanol wash, the DNA is reconstituted in 600 μl of sterile deionized water. […] Cells are transfected at 24 hours post seeding. For each well transfected, 0.8 μg hIBAT cDNA is combined with LipofectAMINE 2000 reagent and incubated at room temperature for 20 minutes to allow complexes to form. A volume of 100 μl of hIBAT-lipid complex is added to each well of cells.
Uptake studies are performed on COS-hIBAT cells at 24 hours post-transfection. […] Because bile acid transport is sodium dependent, this MHBSS approach allows for the simple modification of the uptake buffer to exclude all sources of sodium, and thus enables for a control uptake assay under sodium-free conditions.
Incubation conditions and analysis are performed as described for the Km and Vmax studies. The following equation (Formula 2) is used to estimate the Ki for a series of naturally occurring bile acids: [formula]
Inhibition studies are performed in triplicate.

For series [2] the following is noted: cited from earlier work.
In series [3] the target is T2, human intestinal peptide transporter (PepT1) (Homo sapiens, UniProt P46059).
T2 sequence (P46059 1-708): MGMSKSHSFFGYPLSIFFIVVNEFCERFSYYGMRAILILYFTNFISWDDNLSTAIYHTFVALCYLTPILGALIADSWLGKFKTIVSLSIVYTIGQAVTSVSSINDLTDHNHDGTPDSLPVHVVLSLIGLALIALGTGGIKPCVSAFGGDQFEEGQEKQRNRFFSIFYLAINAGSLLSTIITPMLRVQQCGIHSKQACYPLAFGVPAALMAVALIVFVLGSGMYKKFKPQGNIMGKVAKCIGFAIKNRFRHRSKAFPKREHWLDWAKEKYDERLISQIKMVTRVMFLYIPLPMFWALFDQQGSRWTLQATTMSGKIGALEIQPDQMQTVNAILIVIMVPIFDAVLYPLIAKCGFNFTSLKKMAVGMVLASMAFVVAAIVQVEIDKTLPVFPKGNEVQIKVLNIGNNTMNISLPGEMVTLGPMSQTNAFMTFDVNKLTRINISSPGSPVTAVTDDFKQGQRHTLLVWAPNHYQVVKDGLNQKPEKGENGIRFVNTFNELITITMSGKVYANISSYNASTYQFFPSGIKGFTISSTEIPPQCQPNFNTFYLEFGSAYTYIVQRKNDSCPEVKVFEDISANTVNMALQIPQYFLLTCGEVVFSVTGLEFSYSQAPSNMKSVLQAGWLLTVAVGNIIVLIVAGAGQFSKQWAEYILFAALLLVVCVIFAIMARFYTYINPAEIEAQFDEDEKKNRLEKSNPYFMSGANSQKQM
Conditions: stable lines of CHO/PepT1; cited from earlier work.

The subject of a further series is Caco-2 monolayers. Conditions: across Caco-2 monolayers; example value for reference marker; cited from earlier work.
Where [4] appears, read: read-out: Ki, inhibition of 3H-taurocholate uptake.

In turn, `C[C@H](CCC(=O)O)[C@H]1CC[C@H]2[C@@H]3[C@H](O)C[C@@H]4C[C@H](O)CC[C@]4(C)[C@H]3CC[C@]12C` [chenodeoxycholate] gave a Ki in series [1] of 5.4 µM. Consider `NCCS(=O)(=O)O` [taurine], for which the “inhibition of 3H-taurocholate uptake / interaction with hIBAT (in words)” value in series [1] is “not reduced”. Take `C[C@H](CCC(=O)O)[C@H]1CC[C@H]2[C@@H]3CC[C@@H]4C[C@H](O)CC[C@]4(C)[C@H]3CC[C@]12C` [lithocholate]: the “inhibition of 3H-taurocholate uptake / interaction with hIBAT (in words)” value in series [1] is “never reaches 50% maximal velocity”.

As for `NCC(=O)O` [glycine], the “inhibition of 3H-taurocholate uptake / interaction with hIBAT (in words)” value in series [1] is recorded as “not reduced”. For `CC(C)[C@H](NC(=O)CC[C@@H](C)[C@H]1CC[C@H]2[C@@H]3[C@H](O)C[C@@H]4C[C@H](O)CC[C@]4(C)[C@H]3CC[C@]12C)C(=O)OCCOCn1cnc2c(=O)[nH]c(N)nc21` [acyclovir valylchenodeoxycholate], the Ki in series [1] (setting [4]) was 35.6 µM. Still for that read-out and setting: the figure for `CC(C)C(NC(=O)CCC(C)C1CCC2C3CCC4CC(O)CCC4(C)C3CC(O)C12C)C(=O)OCCOCn1cnc2c(=O)[nH]c(N)nc21` (centres unmarked) [acyclovir valyldeoxycholate] is 401 µM. Turning to `CC(C)[C@H](N)C(=O)OCCOCn1cnc2c(=O)[nH]c(N)nc21` [valacyclovir], the figures for the “inhibition of 3H-taurocholate uptake / interaction with hIBAT (in words)” value in series [1] and in series [1] (listed as Valacyclovir) were “no inhibition” and “do not inhibit”, respectively. Further, the “bioavailability after oral administration” value in series [2] was 54%. Besides, the Ki in series [3] is 1100 µM. `COCCc1ccc(OCC(O)CNC(C)C)cc1` (centres unmarked) [metoprolol tartrate]: in the series with Caco-2 monolayers, the permeability is 40 ×10⁻⁶ cm/s.
